From patent publication US20220412989A1, “COMPOSITIONS AND METHODS FOR DETECTING CELLS UNDERGOING FERROPTOSIS USING AN ANTIBODY” (THE TRUSTEES OF COLUMBIA UNIVERSITY IN THE CITY OF NEW YORK, priority 2020, published 2022)

Key:
Format in all cases: cell-based, human
HT-1080 cells [1] = assay: Nucleus area by immunofluorescence (DAPI, CellProfiler)
Experimental: HT-1080 (ATCC Cat #CRL-7951, RRID:CVCL_0317), A-673, SK-BR-3, SK-LMS-1 and Huh-7 cells were treated with 1 μM RSL3 for 4 h, 15 μM erastin for 8 h, 10 μM IKE for 8 h, 15 μM FINO2 for 8 h, 10 μM FIN56 for 8 h, 100 μM tBuOOH for 8 h, 1 μM staurosporine (STS) for 6 h, 2 μM camptothecin (CPT) for 24 h, 1 μM RSL3+5 μM Fer-1 for 4 h and 10 μM IKE+5 μM Fer-1 for 8 h on poly-lysine-coated cover slips (Sigma Aldrich P4832) in 24-well plate. Media were taken out and the cells were gently washed with PBS^++ (PBS with 1 mM CaCl2) and 0.5 mM MgCl2) twice. The cells were fixed and permeabilized by adding 200 μL/well of 4% paraformaldehyde (PFA) in PBS with 0.1% Triton X-100 (PBT), and incubated at room temperature for 18 min. The cells were then washed with PBT three times. Then the cells were blocked with 5% goat serum (ThermoFisher 50197Z) in PBT for 1 h at room temperature. The cells were incubated with purified mouse monoclonal antibodies (1:5 dilution), mouse mAb 3F3 FMA (1:500 dilution), Transferrin Receptor/CD71 Monoclonal Antibody, Clone: H68.4, Invitrogen (Thermo Fisher Scientific Cat #13-6800, RRID:AB_2533029, 1:250 dilution), Cd71 (D7G9X) XP® Rabbit mAb (Cell Signaling Technology Cat #13113, RRID:AB_2715594, 1:100 dilution), CD71 (3B8 2A1) (Santa Cruz Biotechnology Cat #sc-32272, RRID:AB_627167, 1:50 dilution), Tom20 (FL-145) (Santa Cruz Biotechnology Cat #sc-11415, RRID:AB_2207533, 1:250 dilution), PDI antibody [RL90]—ER Marker (Abcam Cat #ab2792, RRID:AB_303304, 1:100 dilution), Gm130 (D6B1) XP® Rabbit mAb (Cell Signaling Technology Cat #12480, RRID:AB_2797933, 1:3200 dilution), Anti-Malondialdehyde antibody (Abcam Cat #ab6463, RRID:AB_305484, 1:400 dilution), Anti-4 Hydroxynonenal antibody (Abcam Cat #ab46544, RRID:AB_722493, 1:50 dilution), ACSL4 Antibody (F-4) (Santa Cruz Biotechnology Cat #sc-365230, RRID:AB_10843105, 1:50 dilution), mouse mAb 1F83 (1:100 dilution), which specifically recognizes the malondialdehyde (MDA)-lysine adduct 4-methyl-1,4-dihydropyridine-3,5-dicarbaldehyde (MDHDC) (Yamada et al., 2001), in PBT with 1% BSA and 5% goat serum overnight at 4° C. The cells were washed with PBT for 5 min three times. The cells were incubated with Goat anti-Mouse IgG (H+L) Highly Cross-Adsorbed Secondary Antibody, Alexa Fluor 594 (Thermo Fisher Scientific Cat #A-11032, RRID:AB_2534091, 1:200 dilution) or Goat anti-Rabbit IgG (H+L) Highly Cross-Adsorbed Secondary Antibody, Alexa Fluor 488 (Thermo Fisher Scientific Cat #A-11034, RRID:AB_2576217, 1:200 dilution) at room temperature for 1 h. The cells were washed with PBT for 5 min three times. ProLong Diamond antifade mountant with DAPI (ThermoFisher P36962) was added to stain the nucleus. All images were captured on a Zeiss LSM 800 confocal microscope at Plan-Apochromat 63x/1.40 Oil DIC objective with constant laser intensity for all samples. When applicable, line-scan analysis was performed on representative confocal microscopy images using Zeiss LSM software to qualitatively visualize fluorescence overlap.
The quantification of the intensity of antibodies was analyzed using CellProfiler 3.1.8 (Carpenter et al., 2006) (CellProfiler Image Analysis Software, RRID:SCR_007358). Nuclei were firstly identified as primary objects using global minimum cross entropy strategy. […] Then mean intensities and size areas of nuclei, cytoplasm and plasma membranes were then measured and reported. […]

HT-1080 cells [2] = assay: Nucleus area by high-content analysis
Experimental: For the screening with five technical replicates, HT-1080 cells were washed with PBS, trypsinized and resuspended in cell culture medium. The cell suspension (2,000 cells in 50 μl per well) was dispensed into collagen (Sigma-Aldrich, St. Louis, Mass., USA) pre-coated 384-well plates (PerkinElmer 384-well CellCarrierUltra™). 24 h after seeding, medium was exchanged to medium containing 0.3 μM RSL3 (1 mM stock solution) dissolved in 100% dimethyl sulfoxide (DMSO) or DMSO alone. 50 μl medium with 0.3 μM RSL3/DMSO was added per well. The cells were then incubated (37° C.; 5% CO2) for 2.5 h prior to fixation and antibody staining. […] Finally, plates were recorded using the automated Operetta® microscope with the 20× high NA objective for high-resolution images (PerkinElmer, USA). For quantification, three images of each condition were recorded using three channels (Hoechst, Alexa488, TRITC). […] Quantification on cell number, cytoplasmic intensity, nucleus intensity and spot number per cell was performed using the Columbus Software (PerkinElmer, USA).
Multiparametric image analysis was performed using Columbus Software 2.8.0 (PerkinElmer). […] In a next step we have calculated the morphology and Alexa488 fluorescence intensity in each cell region (nucleus and cytoplasm). […] Each spot was detected as a small region within the corresponding image by having a higher intensity than its surrounding area. […]

HT-1080 cells [3] = assay: Cell death after RSL3 incubation; conditions: 1 μM RSL3, 4 h incubation

With `CCOc1ccccc1-n1c(C(C)N2CCN(C(=O)COc3ccc(Cl)cc3)CC2)nc2ccccc2c1=O` (centres unmarked) [erastin] the “nuclei shrank by (mean nucleus area)” value (HT-1080 cells [1]; 15 μM erastin, 8 h incubation) was 21%.
In the case of `CC1(CCO)CC2(CCC(C(C)(C)C)CC2)OO1` (centres unmarked) [FINO2, ferroptosis inducer endoperoxide], the “nuclei shrank by (mean nucleus area)” value (HT-1080 cells [1]; 15 μM FINO2, 8 h incubation) is reported as 49%.
`COC(=O)c1ccc([C@@H]2c3[nH]c4ccccc4c3C[C@@H](C(=O)OC)N2C(=O)CCl)cc1` [RSL3, (1S, 3R)-RSL3] was tested, and the “nuclei shrank by (mean nucleus area)” value (HT-1080 cells [1]; 1 μM RSL3, 4 h incubation) was 27%, the “decrease of average nucleus area vs DMSO group” value (HT-1080 cells [2]; RSL3-treated plates 4-6) was 17% and the average nucleus area (HT-1080 cells [2]; RSL3-treated plates 4-6 (DMSO group 240 μm^2)) was 200 μm^2. For the same compound, the HT-1080 cells died (HT-1080 cells [3]) was 30%.
In the case of `CC(C)Oc1ccc(C(=O)Cn2ccnc2)cc1-n1c(CN2CCN(C(=O)COc3ccc(Cl)cc3)CC2)nc2ccccc2c1=O` [IKE, imidazole ketone erastin], the “nuclei shrank by (mean nucleus area)” value (HT-1080 cells [1]; 10 μM IKE, 8 h incubation) is reported as 12%.
In the case of `O=S(=O)(NC1CCCCC1)c1ccc2c(c1)C(=NO)c1cc(S(=O)(=O)NC3CCCCC3)ccc1-2` [FIN56, ferroptosis inducer 56], the “nuclei shrank by (mean nucleus area)” value (HT-1080 cells [1]; 10 μM FIN56, 8 h incubation) is reported as 17%.
